Data set [1] deals with Human immunodeficiency virus 1. In words: Antiviral activity against HIV1 3B infected in human MT4 cells after 4 days by MTT assay. Type of data set: functional, organism-based. Particulars: Human immunodeficiency virus 1, 3B, MT4, 96 h; read-out: EC50; call rule not given here.
The test system of data set [2] is THP-1. In words: Cytotoxicity against human THP1 cells after 72 hrs by propidium iodide staining-based flow cytometry. Particulars: Homo sapiens, THP-1, 72 h; read-out: IC50. Type of data set: cell-based.
Data set [3] can be described thus: Selectivity index, ratio of IC50 for human THP1 cells to IC50 for Plasmodium falciparum. The format is toxicity, cell-based, THP-1.
The test system of data set [4] is Human immunodeficiency virus 2. Briefly: Antiviral activity against HIV2 ROD infected in human MT4 cells after 4 days by MTT assay. Particulars: Human immunodeficiency virus 2, ISOLATE ROD, MT4, 96 h; read-out: EC50. The format is functional, organism-based, ISOLATE ROD.
The subject of data set [5] is Trichomonas vaginalis. In words: Antitrichomonal activity against Trichomonas vaginalis TVR79 after 48 hrs by optical microscopy. Particulars: Trichomonas vaginalis, TVR79, 48 h; read-out: IC50. The format is functional, organism-based.
The nature of data set [6]: Cytotoxicity against human MT4 cells after 4 days by MTT assay. The format is cell-based. Particulars: MT4 cells.
In data set [7] the test system is Leishmania donovani. Briefly: Antileishmanial activity against Leishmania donovani MHOM/IN/78/80/DD8 amastigote by alamar blue method. The format is functional, organism-based. Particulars: Leishmania donovani, MHOM/IN/78/80/DD8; read-out: IC50.
Data set [8] concerns Leishmania donovani. Briefly: Antileishmanial activity against Leishmania donovani MHOM/IN/78/80/DD8 promastigote by alamar blue method. Type of data set: functional, organism-based. Particulars: Leishmania donovani, MHOM/IN/78/80/DD8; read-out: IC50.
The test system of data set [9] is Plasmodium falciparum. Briefly: Antimalarial activity against chloroquine, pyrimethamine, proguanil-resistant Plasmodium falciparum infected in human erythrocytes after 48 hrs by flow cytometry. The format is functional, organism-based. Particulars: Plasmodium falciparum, 48 h; read-out: IC50.

Experimental findings from ChEMBL document CHEMBL1154275, “Synthesis and biological evaluation of new heterocyclic quinolinones as anti-parasite and anti-HIV drug candidates” (Bioorg Med Chem Lett, 2009) are described below.

Take `CCOC(=O)C(=CNc1ccc([N+](=O)[O-])cc1)C(=O)OCC`: the EC50 was ≥ 198 µM in [1] and ≥ 121 µM in data set [4]. The 50% inhibitory concentration (IC50) is > 125 µM in data set [2]; > 125 µM in data set [5]; > 100 µM in [7]; > 250 µM in data set [8]; > 250 µM in [9]. Moreover, in [3] (thp-1), the selectivity index result was “Not Active”. Moreover, the CC50 at 96 h in data set [6] is ≥ 250 µM.

Consider `Nc1ccc2[nH]ccc(=O)c2c1`, for which the values for the EC50 in data set [1] and in [4] were > 631 µM and ≥ 501 µM, respectively. Besides, the IC50 in data set [2] is > 500 µM; in data set [5], > 200 µM; in [7], > 200 µM; in data set [8], > 200 µM; in data set [9], 90 µM. In addition, the selectivity index in data set [3] (human, THP-1 cells) is > 5.5. Further, the CC50 at 96 h in data set [6] was ≥ 631 µM.

For the compound `CC1(C)OC(=O)C(=CNc2ccc3[nH]c(=O)[nH]c3c2)C(=O)O1`, the half-maximal effective concentration (EC50) in [1] and in data set [4] was > 412 µM throughout. Moreover, the IC50 in data set [2] was > 500 µM; in data set [5], > 200 µM; in data set [7], > 200 µM; in [8] it was > 200 µM; in [9] it was > 500 µM. Moreover, the selectivity index result in data set [3] (thp-1) is recorded as “Not Active”. The CC50 at 96 h in data set [6] was > 412 µM.

Regarding `O=c1cc[nH]c2c([N+](=O)[O-])cccc12`, the 50% effective concentration (EC50) in data set [1] and in data set [4] was > 71.6 µM throughout. In addition, the half-inhibitory concentration (IC50) in data set [2] is > 500 µM; in [5], > 200 µM; in [7], > 200 µM; in [8] it was > 200 µM; in data set [9], > 500 µM. Moreover, in data set [3] (thp-1), the selectivity index result is recorded as “Not Active”. In data set [6], the cytotoxic concentration (CC50) at 96 h is > 71.6 µM.

Consider `CC1(C)OC(=O)C(=CNc2cccc(-c3nc4ccccc4s3)c2)C(=O)O1`, for which the EC50 in data set [1] and in data set [4] was > 190 µM throughout. The IC50 in data set [2] was 115 µM; in data set [5], > 200 µM; in [7], > 200 µM; in data set [8], > 200 µM; in data set [9], 30 µM. In addition, the selectivity index in data set [3] (human, THP-1 cells) was 4. In addition, the CC50 at 96 h in data set [6] is > 190 µM.

Regarding `Cc1nc2ccc3[nH]ccc(=O)c3c2s1`, the EC50 in data set [1] and in data set [4] was > 405 µM in each case. In addition, the IC50 in [2] is > 500 µM; in data set [5], > 200 µM; in data set [7], > 200 µM; in [8] it was > 200 µM. In addition, in [6], the CC50 at 96 h was > 405 µM.

For the compound `O=c1cc[nH]c2cc3c(cc12)OCCO3`, the EC50 in data set [1] and in data set [4] was > 356 µM in each case. Further, the concentration for half-maximal inhibition (IC50) in data set [2] was 115 µM; in [5], > 200 µM; in data set [7] it was > 200 µM; in data set [8] it was > 200 µM; in data set [9] it was 50 µM. Moreover, the selectivity index in data set [3] (human, THP-1 cells) stood at 2.3. Moreover, the CC50 at 96 h in data set [6] was > 356 µM.

Regarding `O=c1cc[nH]c2ccc([N+](=O)[O-])cc12`, the 50% effective concentration (EC50) in data set [1] and in data set [4] was > 356 µM each time. Besides, the half-maximal inhibitory concentration (IC50) in [2] was 130 µM; in data set [5], > 200 µM; in data set [7], > 200 µM; in [8], > 200 µM; in data set [9], 52 µM. For the same compound, the selectivity index in data set [3] (human, THP-1 cells) worked out at 2.5. For the same compound, the CC50 at 96 h in data set [6] was > 356 µM.

For `CC1(C)OC(=O)C(=CNc2ccc3cn[nH]c3c2)C(=O)O1`, the EC50 in [1] and in data set [4] was > 436 µM in each case. Moreover, the 50% inhibitory concentration (IC50) was > 250 µM in data set [2]; > 100 µM in data set [5]; > 100 µM in data set [7]; > 100 µM in data set [8]; > 250 µM in [9]. Also, the selectivity index entry in data set [3] (thp-1) is “Not Active”. Also, in data set [6], the CC50 at 96 h is > 436 µM.

With `CN(C)c1nc2cc3[nH]ccc(=O)c3cc2o1`, the EC50 in data set [1] and in [4] was > 324 µM each time. For the same compound, the half-maximal inhibitory concentration (IC50) in data set [2] was > 125 µM; in data set [5] it was > 125 µM; in data set [7] it was > 100 µM; in data set [8] it was > 250 µM; in data set [9], 40 µM. For the same compound, the selectivity index in data set [3] (human, THP-1 cells) was > 3.1. Besides, in data set [6], the 50% cytotoxic concentration (CC50) at 96 h was > 324 µM.

As for `CN(C)c1nc2ccc(NC=C3C(=O)OC(C)(C)OC3=O)cc2o1`, the concentration for a half-maximal effect (EC50) in [1] and in data set [4] was > 378 µM in each case. Also, the IC50 in data set [2] was > 250 µM; in [5], > 100 µM; in [7] it was > 100 µM; in [8], > 100 µM; in [9], 40 µM. In addition, the selectivity index in data set [3] (human, THP-1 cells) was > 6.25. Moreover, the CC50 at 96 h in data set [6] is > 378 µM.

Regarding `C[C@H]1c2cccc(O)c2C(=O)C2=C(O)[C@]3(O)C(=O)C(C(N)=O)=C(O)[C@@H](N(C)C)[C@@H]3[C@@H](O)[C@@H]21` [DOXYCYCLINE], in data set [2], the half-maximal inhibitory concentration (IC50) was found to be 20 µM. Also, the selectivity index in data set [3] (human, THP-1 cells) was 3.1.

For the compound `CC1(C)OC(=O)C(=CNc2ccc3ncsc3c2)C(=O)O1`, the EC50 in data set [1] and in [4] was > 39.1 µM in each case. Also, the IC50 in data set [2] was > 500 µM; in [5], > 200 µM; in data set [7], 40 µM; in data set [8], > 200 µM; in data set [9] it was 60 µM. In addition, in data set [3] (human, THP-1 cells), the selectivity index was > 8.3. The cytotoxic concentration (CC50) at 96 h in data set [6] was > 39.1 µM.

Turning to `CC1(C)OC(=O)C(=CNc2ccc3c(c2)OCCO3)C(=O)O1`, the concentration giving a half-maximal response (EC50) in data set [1] and in data set [4] was > 428 µM each time. In addition, the IC50 in [2] was > 500 µM; in [5] it was > 200 µM; in data set [7], > 200 µM; in data set [8], > 200 µM; in [9], > 500 µM. Further, the selectivity index result in data set [3] (thp-1) was “Not Active”. The cytotoxic concentration (CC50) at 96 h in [6] is > 428 µM.

For the compound `Cc1nc2ccc(NC=C3C(=O)OC(C)(C)OC3=O)cc2s1`, the EC50 in [1] and in [4] was > 317 µM in each case. The half-maximal inhibitory concentration (IC50) in data set [2] is > 250 µM; in data set [5], > 100 µM; in data set [7], > 200 µM; in [8], > 250 µM; in data set [9], 60 µM. Moreover, the selectivity index in data set [3] (human, THP-1 cells) is > 4.1. In [6], the CC50 at 96 h is > 317 µM.

Turning to `C[C@@H]1[C@H](O)[C@@H](C)/C=C/C=C/C=C/C=C/C=C/C=C/C=C/[C@H](O[C@@H]2O[C@H](C)[C@@H](O)[C@H](N)[C@@H]2O)C[C@@H]2O[C@](O)(C[C@@H](O)C[C@@H](O)[C@H](O)CC[C@@H](O)C[C@@H](O)CC(=O)O[C@H]1C)C[C@H](O)[C@H]2C(=O)O` [AMPHOTERICIN B], the IC50 in [7] is 0.1 µM.

Regarding `CC1(C)OC(=O)C(=CNc2ccc3[nH]nnc3c2)C(=O)O1`, the 50% effective concentration (EC50) in data set [1] and in data set [4] was > 68.1 µM each time. Moreover, the half-inhibitory concentration (IC50) in data set [2] was > 500 µM; in data set [5], > 200 µM; in data set [7], > 200 µM; in data set [8], > 200 µM; in data set [9], > 500 µM. Further, the selectivity index entry in data set [3] (thp-1) was “Not Active”. Also, the CC50 at 96 h in data set [6] was > 68.1 µM.

Take `Cc1nc2ccc3c(c(=O)ccn3C)c2s1`: the half-maximal effective concentration (EC50) in data set [1] and in data set [4] was > 341 µM each time. Also, the half-inhibitory concentration (IC50) in [2] is 115 µM; in data set [5], > 100 µM; in [7] it was > 100 µM; in data set [8], > 100 µM; in [9] it was > 250 µM. Also, in data set [3] (thp-1), the selectivity index entry is recorded as “Not Active”. Moreover, the CC50 at 96 h in [6] is > 341 µM.

With `Cc1ncc([N+](=O)[O-])n1CCO` [METRONIDAZOLE], the IC50 in data set [2] was > 500 µM; in [5], 2.7 µM.
